From patent US20230150951A1, “2,5- OR 2,6-DISUBSTITUTED HYDROQUINONE DERIVATIVES WITH AT LEAST ONE CARBOXY, SULFO OR AMIDO GROUP USEFUL AS MEDICAMENTS” (OM PHARMA SA, priority 2020, published 2023)
Read-outs that look alike come from different tables or passages of the source.

Legend:
Type in all cases: cell-based
Human neutrophils = experiment: Inhibition of ROS production in human neutrophils (isoluminol chemiluminescence); conditions: Homo sapiens, Neutrophil, fMLP+TNF-α stimulated PMN
Method in brief: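 Neutrophils from healthy-donor buffy coats (3×10^6/ml in HBSS with Ca/Mg) pre-incubated 30 min at 37° C with compound (0.1–10 μM), primed with TNF-α 20 ng/ml for 10 min, then added to fibrinogen-coated wells. Isoluminol/HRP chemiluminescence recorded every 25 sec for 250 sec after fMLP (1 μM), background-subtracted.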

IFN-gamma = experiment: Cytokine release after LPS induction on human whole blood: IFNγ
Description: (§1) Aim of this in vitro method is to assess compounds effects on release of a panel of cytokines from whole blood following lipopolysaccharide (LPS) induced inflammatory reaction. Whole blood was incubated with compounds for 1 h prior to LPS induction. Cytokine levels in blood were measured using a multiplex FACS-based panel.
(§2) IC50 values determined for the tested compounds expressed in microM [μM] and the values for the inhibition of cytokines were listed for each compound.
(§3) Effect on cytokines release after LPS induction was performed on the compounds dissolved in DMSO or H2O to reach 10-fold concentrated stock solutions and dissolved in culture media.
(§4) Test system: Whole blood was removed from a single donor (into lithium heparin coated tubes; BD Vacutainer; 367886) and diluted 1:5 with RPMI 1640 (Thermo Fisher, 61870036). Within 30 minutes of sampling, blood was incubated with compounds for 1 h prior to LPS stimulation (O111:B4—Sigma L4391; 10 ng/ml final concentration). Stimulation continued under standard cell culture conditions (37° C. with 5% CO2) overnight (18 h), after which plates were centrifuged and supernatant removed and frozen at −80° C. until used for analyses.
(§5) Dilution of test compounds: 10×concentrated solutions (concerning to the final assay concentrations) of each test compound were prepared with the appropriate solvent (in DMSO or in water). These 10× compound solutions (10 μl) were then added to 90 μl pre-diluted whole blood (whole blood: RPMI1640, 1:5) resulting in the final assay concentration.
(§6) Test method: Diluted whole blood (80 μl) was pre-incubated with compounds (10 μl) to give final assay concentrations of 100, 30, 10, 3, 1, 0.3 and 0.1×10^−6M. Blood was incubated at 37° C. with 5% CO2 for 1 h. LPS was diluted in cell culture media to a concentration of […]; 10 μl was added to the whole blood to give a final concentration of 10 ng/ml. Plates were incubated at 37° C. for 18 h. Plates were centrifuged at 3,000 RPM for 5 minutes at 4° C. and supernatant removed and frozen at −80° C. until FACS analysis was carried out.
(§7) Cytokine release was measured using a custom multiplex system (ELISA Genie) according to manufacturers instructions. Prepared samples were run on an Attune NxT flow cytometer (Thermo Fisher).
(§8) Quantification of cytokine release inhibition: known concentration standards were run as part of the cytokine panel to allow quantification of each cytokine concentration in each sample. This was carried out using FCAP Array v3.0 software.
(§9) Results: The dose response relationship on cytokine release following LPS induction of inflammatory response in whole blood was assessed for all compounds. IC50 values were determined for each compound for a panel of cytokines (GM-CSF, IFN-gamma, IL-1beta, IL-2, IL-4, IL-5, IL-6, IL-8, IL-9, IL-10, IL-12p40, IL-13, IL-17A, IL-17F, IL-18, IL-21, IL-22, IL-33, TGF-beta, TNF-alpha, TNF-beta).

IL-2 = experiment: Cytokine release after LPS induction on human whole blood: IL-2
Description: as §1, §2, §3, §4, §5, §6, §7, §8, §9

IL-4 = experiment: Cytokine release after LPS induction on human whole blood: IL-4
Description: as §1, §2, §3, §4, §5, §6, §7, §8, §9

IL-5 = experiment: Cytokine release after LPS induction on human whole blood: IL-5
Description: as §1, §2, §3, §4, §5, §6, §7, §8, §9

IL-10 = experiment: Cytokine release after LPS induction on human whole blood: IL-10
Description: as §1, §2, §3, §4, §5, §6, §7, §8, §9

IL-13 = experiment: Cytokine release after LPS induction on human whole blood: IL-13
Description: as §1, §2, §3, §4, §5, §6, §7, §8, §9

IL-17A = experiment: Cytokine release after LPS induction on human whole blood: IL-17A
Description: as §1, §2, §3, §4, §5, §6, §7, §8, §9

TNF-beta = experiment: Cytokine release after LPS induction on human whole blood: TNFβ
Description: as §1, §2, §3, §4, §5, §6, §7, §8, §9

[1] = Homo sapiens, LPS 10 ng/ml, 18 h, read-out: Whole Blood: IFNγ IC50
[2] = Homo sapiens, LPS 10 ng/ml, 18 h, read-out: Whole Blood: IL-2 IC50
[3] = Homo sapiens, LPS 10 ng/ml, 18 h, read-out: Whole Blood: IL-4 IC50
[4] = Homo sapiens, LPS 10 ng/ml, 18 h, read-out: Whole Blood: IL-5 IC50
[5] = Homo sapiens, LPS 10 ng/ml, 18 h, read-out: Whole Blood: IL-10 IC50
[6] = Homo sapiens, LPS 10 ng/ml, 18 h, read-out: Whole Blood: IL-13 IC50
[7] = Homo sapiens, LPS 10 ng/ml, 18 h, read-out: Whole Blood: IL-17A IC50
[8] = Homo sapiens, LPS 10 ng/ml, 18 h, read-out: Whole Blood: TNF β IC50
[9] = human whole blood, inhibition of LPS induced inflammation, read-out: IC50 IFNγ
[10] = human whole blood, inhibition of LPS induced inflammation, read-out: IC50 IL-2
[11] = human whole blood, inhibition of LPS induced inflammation, read-out: IC50 IL-4
[12] = human whole blood, inhibition of LPS induced inflammation, read-out: IC50 IL-5
[13] = human whole blood, inhibition of LPS induced inflammation, read-out: IC50 IL-10
[14] = human whole blood, inhibition of LPS induced inflammation, read-out: IC50 IL-13
[15] = human whole blood, inhibition of LPS induced inflammation, read-out: IC50 IL-17A
[16] = human whole blood, inhibition of LPS induced inflammation, read-out: IC50 β

IC50 (IFN-gamma; [1]) [nM]	IC50 (IL-2; [2]) [µM]	IC50 (IL-4; [3]) [µM]	IC50 (IL-5; [4]) [µM]	IC50 (IL-10; [5]) [µM]	IC50 (IL-13; [6]) [µM]	IC50 (IL-17A; [7]) [nM]	IC50 (TNF-beta; [8]) [µM]	IC50 (Human neutrophils) [nM]	IC50 (IFN-gamma; [9]) [nM]	IC50 (IL-2; [10]) [µM]	IC50 (IL-4; [11]) [µM]	IC50 (IL-5; [12]) [µM]	IC50 (IL-10; [13]) [µM]	IC50 (IL-13; [14]) [µM]	IC50 (IL-17A; [15]) [nM]	IC50 (TNF-beta; [16]) [µM]	SMILES	inhibition at 0.3 µM (Human neutrophils) [%]
1380	9.45	> 100	> 100	> 100	0.12	310	0.41										O=C(Nc1ccccc1-c1nnn[nH]1)c1cc(O)c(C(=O)Nc2ccccc2-c2nnn[nH]2)cc1O [Ic-001aTz2, N1,N4-bis(2-(1H-tetrazol-5-yl)phenyl)-2,5-dihydroxyterephthalamide]	60.6
4340	21.2	> 100	> 100	1.31	> 100	160	0.33	147	4340	21.2	100	100	1.31	100	160	0.33	O=C(O)c1cc(O)cc(CS(=O)(=O)Cc2cc(O)cc(C(=O)O)c2O)c1O [IVc-059a, 3-((2,5-Dihydroxy-3-carboxyphenyl)methylsulfonylmethyl)-2,5-dihydroxybenzoic acid]	74
540	19.6	> 100	> 100	11.3	0.13	1	6.94		540	19.6	100	100	11.3	0.13	1	6.94	O=C(O)c1cc(O)ccc1NC(=O)c1cc(O)cc(C(=O)Nc2ccc(O)cc2C(=O)O)c1O [IIc-009a, 2-(3-(2-carboxy-4-hydroxyphenylaminocarbonyl)-2,5-dihydroxybenzamido)-5-hydroxyl benzoic acid]	75.3
30500	94.3	> 100	> 100	> 100	26.4	100	13.2	355	30500	94.3	100	100	100	26.4	100	13.2	O=C(O)c1cc(O)c(C(=O)Nc2ccccc2C(=O)O)cc1O [Ia-001a, 4-(2-carboxyphenylaminocarbonyl)-2,5-dihydroxybenzoic acid]	48
2790	36.2	> 100	> 100	> 100	33	520	38.2	6520	2790	36.2	100	100	100	33	520	38.2	CCOC(=O)c1cc(NC(=O)c2cc(O)c(C(=O)OCC)cc2O)cc(NC(=O)c2cc(O)c(C(=O)OCC)cc2O)c1 [Ib-010a-E3, ethyl 3,5-bis(2,5-dihydroxy-4-ethoxycarbonylbenzoylamino)benzoate]	36.4
1040	1.67	> 100	> 100	> 100	29.9	> 100000	91.5	620	1040	1.67	100	100	100	29.9	100000	91.5	O=C(O)c1ccccc1CNC(=O)c1cc(O)cc(C(=O)O)c1O [IIa-053a, 3-(2-Carboxyphenylmethylaminocarbonyl)-2,5-dihydroxybenzoic acid]	63.1
> 100000	7.99	> 100	> 100	26.1	32.1	110	53	1540	100000	7.99	100	100	26.1	32.1	110	53	O=C(O)c1cc(O)c(C(=O)Nc2ccccc2-c2nnn[nH]2)cc1O [Ia-001a-Tz, 4-(2-(1H-tetrazol-5-yl)phenyl-aminocarbonyl)-2,5-dihydroxybenzoic acid]	54.3
900	24.2	> 100	> 100	> 100	4.73	1320	1.58		900	24.2	100	100	100	4.73	1320	1.58	CC(=O)N(Cc1cc(O)c(C(=O)O)cc1O)Cc1cc(O)c(C(=O)O)cc1O [IIIc-057a, N,N-Bis(4-carboxy-2,5-dihydroxyphenylmethyl)acetamide]	90.3
2950	43	> 100	> 100	6.94	89.6	70	55	2490	2950	43	100	100	6.94	89.6	70	55	O=C(O)c1cc(O)c(C(=O)Nc2ccc(-c3nnn[nH]3)cc2)cc1O [Ia-003a-Tz, 4-(4-(1H-tetrazol-5-yl)phenyl-aminocarbonyl)-2,5-dihydroxybenzoic acid]	62.2

SMILES	IC50 (IFN-gamma; [1]) [nM]	IC50 (IL-2; [2]) [µM]	IC50 (IL-4; [3]) [µM]	IC50 (IL-5; [4]) [µM]	IC50 (IL-10; [5]) [µM]	IC50 (IL-13; [6]) [µM]	IC50 (IL-17A; [7]) [nM]	IC50 (TNF-beta; [8]) [µM]	IC50 (Human neutrophils) [nM]	IC50 (IFN-gamma; [9]) [nM]	IC50 (IL-2; [10]) [µM]	IC50 (IL-4; [11]) [µM]	IC50 (IL-5; [12]) [µM]	IC50 (IL-10; [13]) [µM]	IC50 (IL-13; [14]) [µM]	IC50 (IL-17A; [15]) [nM]	IC50 (TNF-beta; [16]) [µM]	inhibition at 0.3 µM (Human neutrophils) [%]
O=C(O)c1cc(NC(=O)c2cc(O)c(C(=O)Nc3ccc(O)c(C(=O)O)c3)cc2O)ccc1O [Ic-007a, 5-(4-(3-carboxy-4-hydroxyphenylaminocarbonyl)-2,5-dihydroxybenzamido)-2-hydroxy benzoic acid]	1440	> 100	> 100	> 100	12.5	30.1	40	6.52	2700	1440	100	100	100	12.5	30.1	40	6.52	58
